The values below come from ChEMBL document CHEMBL3507680, “University of Dundee, Gates Library screen for HepG2 cell viability”.

The series is described as follows: Human HepG2 cell viability assay in 384 well format. Format: toxicity, cell-based. Set-up: dose 125 nL, time 70.5 hour; concentration not given beside the values. To be noted: HepG2 cells, read-out: Inhibition.

For `O=C(CC1CC1)N1CCC2(COCc3cnc(N4CCOCC4)nc32)C1` (stereo not given), the cytotoxicity at 70.5 h was -6.88%. With `O=C(c1cccs1)N1CCC2(CC1)CN(c1ccsc1)C(=O)CO2` the figure was -8.69%. In the case of `O=C(CCO)N1CC[C@@H]2CN(C(=O)c3ccco3)CCO[C@@H]2C1` it was -4.78%. With `CN(C)[C@@H]1CCN(C(=O)c2ccccn2)[C@H]1Cc1cnn(C)c1` the figure was -5.7%; with `c1cc(CN2CC[C@H]3O[C@@H](COCC4CCOCC4)CC[C@H]32)ccn1`, 23.2%.

For the compound `Cn1nnc2c1CCN(S(C)(=O)=O)C2COCc1ccccc1` (stereo not given), the cytotoxicity at 70.5 h is 13.6%. In the case of `O=C(c1ccco1)N1CC[C@@H]2[C@H]1CCC(=O)N2c1ccccc1` it was -15.1%; in that of `Cn1cccc1C(=O)NCc1cn2c(n1)CN(c1ncccn1)CC2`, -12.8%; in that of `CCS(=O)(=O)N1CCC2(CN(Cc3ccc(C)o3)C2)C1`, -13.4%. In the case of `CCS(=O)(=O)N1CCC2(CCN(Cc3ccc(C)o3)C2)C1` (stereo not given) it was 13%; in that of `Cn1cccc1C(=O)NCc1cn2c(n1)CN(S(=O)(=O)C1CC1)CC2`, -10.3%. Turning to `COCC1CN(C(=O)c2ccco2)Cc2nccn2C1` (stereo not given), the cytotoxicity at 70.5 h is -9.63%.

As to `COCCC(=O)N1CCN(CC2CC2)c2ncccc2C1`, the cytotoxicity at 70.5 h amounted to 8.88%. `COCCC(=O)N1CCc2nc(N3CCOCC3)nc(NC(C)C)c2C1`: the cytotoxicity at 70.5 h was -17%. With `O=C(C1CCOCC1)N1CCN(CC2CC2)c2ncccc2C1` the figure was -14.2%; with `COCCC(=O)N1CCC2(CN(Cc3cccc(Cl)c3)C2)C1`, 33.3%.

Regarding `O=c1ccc2c(n1CC1CC1)CCC(NS(=O)(=O)C1CC1)C2` (stereo not given), the cytotoxicity at 70.5 h amounted to 21.2%. As to `O=C(N1CCCC1)N1CCCC2(CCN(c3ccsc3)C2=O)C1` (stereo not given), the cytotoxicity at 70.5 h was -7.85%.

With `O=C(NC[C@]12COC[C@H]1CN(Cc1cccc(F)c1)C2)c1ccco1`, the cytotoxicity at 70.5 h was -12.4%. In the case of `Cc1ccc2c(n1)N(CCN(C)C)CCN(C(=O)c1ccsc1)C2` it was -5.53%; in that of `COC(=O)CCC(=O)N1CCC2(CN(Cc3cccc(Cl)c3)C2)C1`, 6.9%.

In the case of `O=C(Cc1ccc(F)cc1)N1CCn2c(Cn3cncn3)cnc2C1`, the cytotoxicity at 70.5 h is -1.65%. As to `CCC(O)C1CCN(C(=O)Nc2nc(-c3ccccc3)ns2)CC1` (stereo not given), the cytotoxicity at 70.5 h was 13.7%.

Regarding `Cc1ccsc1CCNC(C)C(=O)NC1CCCC1` (stereo not given), the cytotoxicity at 70.5 h was -10.7%. In the case of `O=C1CCCN1CCc1noc(-c2ccsc2)n1` it was -7.91%. With `CN1CCCC2(CCN(c3cccc(C(F)(F)F)n3)C2)C1=O` (stereo not given) the figure was -6.46%; with `CC(C)C(=O)N1CCN(C(=O)c2cc(Cl)no2)[C@H]2CS(=O)(=O)C[C@H]21`, -2.12%; with `CC(C)=CCN1CCN(C(=O)c2cc(C)n[nH]2)[C@H]2CS(=O)(=O)C[C@H]21`, 0.726%. In the case of `O=C(CCc1cc2n(n1)CCCNC2)NCCCSC1CCCCC1` it was -8.87%; in that of `O=C(c1cnc(C2CC2)nc1)N1CCC(N2CCC(O)CC2)CC1`, 14.2%; in that of `O=C(CN1CCC(c2ccccc2)CC1)NCc1cc2n(n1)CCNC2`, -10.6%.

Take `CSc1cccc(CN2CCC(CCC(=O)Nc3ccccc3)CC2)c1`: the cytotoxicity at 70.5 h is -8.78%. With `Cn1ccc(NC(=O)CN2C[C@H]3CC[C@@H]2CN(Cc2ccccn2)C3)n1` the figure was -3.7%; with `CCCc1nnc2sc(C3CCN(C4CCN(C)CC4)CC3)nn12`, -12.7%; with `CN(C)C(C(=O)NCCSc1ncn[nH]1)c1cccc(F)c1` (stereo not given), 28.8%.

Regarding `CN1CSC[C@H]1C(=O)N1CCN(Cc2cccc(F)c2)CC1`, the cytotoxicity at 70.5 h worked out at 8.84%. With `CN(C)C(=O)N1C[C@@H]2CC[C@H](C1)N(C(=O)c1c(Cl)cccc1Cl)C2` the figure was -13.7%; with `CC(=O)NCC(=O)N1CCCC2(CCC(=O)N(CCc3c[nH]cn3)C2)C1` (stereo not given), 10.1%. With `CC1(C)[C@H]2CC=C(CN3CCCn4nc(CCC(=O)O)cc4C3)[C@@H]1C2` the figure was -14.3%.

As for `Cc1ncsc1CCN(C)C(=O)C(c1cccnc1)N1CCOCC1` (stereo not given), the cytotoxicity at 70.5 h is -5.13%. With `CCCN1CCN(Cc2nc3ccccc3[nH]2)[C@H]2CS(=O)(=O)C[C@H]21` the figure was -3.06%. With `CCn1ccnc1CN(C)Cc1nc(Cc2ccccc2Cl)no1` the figure was 0.631%; with `Cn1c(Cn2ccnc2)nnc1C1CCN(C(=O)c2cccnc2)CC1`, -10.4%; with `CCC(CO)N(Cc1ccccn1)Cc1c[nH]nc1-c1ccc(F)cc1` (stereo not given), -6.02%.

On to `O=C(Cn1cccn1)N1CCC(Cn2cc(-c3ccsc3)nn2)CC1`, for which the cytotoxicity at 70.5 h is -10.6%.

In the case of `CCc1nc(CCn2ccnc2-c2nccn2C)no1`, the cytotoxicity at 70.5 h is -7.8%.

Turning to `OCC1CCCN(c2ncnc3c2Cc2ccccc2OC3)C1` (stereo not given), the cytotoxicity at 70.5 h is -5.22%. In the case of `Cc1ncsc1CCC(=O)NC1CCN(c2ncccc2C#N)CC1` it was -13.1%; in that of `COCc1noc(-c2ccc(N3CCCCC3COC)nc2)n1` (stereo not given), -11.8%. In the case of `FC(F)(F)c1cccc(OC2CCN(Cc3ccccn3)CC2)c1` it was -0.484%; in that of `CCc1ncc(-c2cn(CCSc3ncn[nH]3)nn2)cn1`, -11.1%; in that of `COc1ccc(NC(=O)c2cccc(CN3CCCC3C)c2)cc1OC` (stereo not given), -2.34%.

As to `COc1ccccc1C(=O)C1CCCN(c2cc(C#N)ccn2)C1` (stereo not given), the cytotoxicity at 70.5 h is -1.63%. In the case of `COCc1noc(-c2ccc(N3CCCC3c3nccs3)nc2)n1` (stereo not given) it was 12%; in that of `CCCOCC(=O)N1CCC2(CC1)c1nc[nH]c1CCN2S(C)(=O)=O`, -5.48%; in that of `O=C(CN1CCN(c2ncnc3c2CCNCC3)CC1)N1CCCCC1`, -5.29%.

Take `Cc1cc(-c2ccc(C(C)N3CCOCC3)cc2)cnc1N` (stereo not given): the cytotoxicity at 70.5 h was -4.56%.

As for `CCc1n[nH]c(SCC(=O)N2CCc3[nH]nc(C4CCC4)c3C2)n1`, the cytotoxicity at 70.5 h was -0.161%. With `COc1ccc(CCC2CCCN(C(=O)CCc3cc(O)no3)C2)cc1` (stereo not given) the figure was -4.3%; with `CC(=O)N[C@@H]1Cc2ccccc2[C@H]1Nc1cc(C2CC2)ncn1`, 7.02%. With `CCNc1ncc(C(=O)N2CCc3c(nc(C)nc3N(C)C)C2)cn1` the figure was 25.4%; with `CS(=O)(=O)NCc1cc2n(n1)CCCN(Cc1ccc(Cl)s1)C2`, -9.1%. With `CN(Cc1ccc(-n2cccn2)cc1)Cc1ncc[nH]1` the figure was -9.75%; with `CC(C)CCn1cc(C(C(=O)O)N2CCSCC2)cn1` (stereo not given), -12.4%. With `COc1cccc(OCC2CCCN(C(=O)CCc3cc(O)no3)C2)c1` (stereo not given), the cytotoxicity at 70.5 h was -21.1%. With `CN(C)C(=O)CN1CCC2(COCc3cnc(N4CCOCC4)nc32)C1` (stereo not given) the figure was 19.8%.

Take `CN1C(=O)C[C@H]2[C@H]1CCN2Cc1cccc(C#N)c1`: the cytotoxicity at 70.5 h was -11.7%. With `CN(C)CCNC(=O)c1cc(-c2cnc(N3CCOCC3)nc2)cn1C` the figure was -8.38%; with `Cc1noc(C)c1CN1C[C@@H]2COC[C@H](C(=O)N3CCOCC3)[C@@H]2C1`, -8.43%. With `c1csc(CN2CCn3c(Cn4cncn4)cnc3C2)c1` the figure was 27.5%; with `Cn1nnc2c1CCN(CC1CC1)C2COCC1CC1` (stereo not given), -12.8%. In the case of `Cc1ccc(CN2CCc3c(nnn3C)C2COCc2ccccc2)s1` (stereo not given) it was -7.66%. For the compound `Cc1occc1C(=O)N1Cc2nccn2CC(CN(C)C)C1` (stereo not given), the cytotoxicity at 70.5 h was -8.13%. On to `O=C(c1ccco1)N1CCOC2(COCCN(c3ncccn3)C2)C1` (stereo not given), for which the cytotoxicity at 70.5 h is -14.8%. Turning to `COc1ccc(CN2CCCn3nnc(COCC4CC4)c3C2)cc1`, the cytotoxicity at 70.5 h is -12.2%. With `Fc1ccc(CN2CCCn3nnc(COCC4CC4)c3C2)cc1` the figure was 16.6%. For `COCCN1CCN(C(=O)N2CCCC2)Cc2ccc(C)nc21`, the cytotoxicity at 70.5 h is 24.9%. With `COCCC(=O)N1CCC2(CCN(Cc3cccc(F)c3)CC2)CC1` the figure was -5.26%; with `COCCC(=O)N1CCC2(CCN(Cc3ccc(C)cc3)CC2)C1`, -7.89%. In the case of `O=C(NC1CCC1)[C@@H]1C[C@@H]2CCN(CCc3ccccc3)C[C@H]2O1` it was -8.97%; in that of `O=C1N(c2ccsc2)CCC12CCCN(CC1CC1)C2` (stereo not given), -4.66%; in that of `CNC(=O)[C@H]1C[C@@H]2CCN(CCc3ccccc3)C[C@@H]2O1`, -4.11%.

On to `O=C(NC[C@]12COC[C@H]1CN(CC1CCOCC1)C2)c1ccco1`, for which the cytotoxicity at 70.5 h is -3.33%. With `Cc1ccsc1CN1C[C@@H]2COC[C@]2(CNC(=O)c2ccco2)C1` the figure was -6.31%; with `N#Cc1cccc(CN2CC[C@@H]3[C@@H]2CC(=O)N3CCN2CCCC2)c1`, -9.81%. In the case of `O=C(c1cccnc1)N1CCN2C[C@H](OCc3ccccc3)C[C@H]2C1` it was -5.95%.

Take `O=C(c1ccnnc1)N1CCN2C[C@H](OCc3cccnc3)C[C@H]2C1`: the cytotoxicity at 70.5 h was -8.22%. With `CN(C)CCN1CCc2c(nnn2C)C1COCc1ccccc1` (stereo not given) the figure was 10.5%; with `CC(=O)NCC(=O)N1CCN(CCN(C)C)c2ncccc2C1`, -14.2%. In the case of `CN(C)C(=O)CN1CCC2(CCCN(Cc3cccnc3)C2)C1=O` (stereo not given) it was -12%; in that of `c1cncc(COCC2CC[C@H]3[C@H](CCN3CC3CCOCC3)O2)c1` (stereo not given in full), 24.3%. On to `O=C(N1CCCC1)N1CCC2(CC1)COCCN(Cc1cccnc1)C2`, for which the cytotoxicity at 70.5 h was -4.16%. In the case of `O=C(c1ccsc1)N1CCC2(CC1)COCCN(Cc1ccncc1)C2` it was -7.46%. In the case of `O=C(NC[C@]12COC[C@H]1CN(Cc1ccncc1)C2)c1ccno1` it was -7.21%; in that of `Cc1cccc(CN2CCOC3(COCCN(CCN(C)C)C3)C2)n1` (stereo not given), -3.04%.
